From publication PMC4523496 (Molecular psychiatry, 2015)

Columns and labels:
[1] = test system: IL-1β mRNA in VTA, NAc, vmPFC; test: IL-1β mRNA in brain micro-punches after systemic drug; format: in vivo, rat; settings: (+)-naloxone […] s.c. twice; 30 min and 2 h after cocaine 10 mg/kg
[2] = test system: extracellular dopamine in the NAc; test: In vivo microdialysis of NAc shell dopamine; parameters: species or system rat; settings: for effect on basal NAc dopamine levels: antagonist alone; for effect on intra-VTA neurotensin-induced elevation of NAc dopamine: control for non-specific disruption of neuronal responsiveness; for extracellular NAc dopamine, compound alone: cocaine 10 mg/kg systemic, neurotensin 10 nMol or LPS 10 ng intra-VTA; for increase of NAc dopamine concentrations: intra-VTA LPS vs systemic cocaine
[3] = test system: isolated neonatal microglial cells; test: IL-1β mRNA expression in isolated neonatal microglial cell culture; settings: neonatal microglia; (+)-naloxone 1, 10, 100 µM co-treatment
[4] = format: in vivo, rat; settings: pretreatment […] s.c. twice; cocaine 10 mg/kg i.p.; hippocampus
[5] = test system: cocaine conditioned place preference; test: Conditioned place preference; format: in vivo, rat; settings: tested drug-free; cocaine 10 mg/kg i.p.
[6] = test system: cocaine self-administration; test: Rat self-administration; format: in vivo; settings: pre-session (+)-naltrexone s.c.
[7] = molecular target: T1, MD-2 (Homo sapiens, UniProt Q9Y6Y9); test: Biophysical ELISA binding assays
T1 sequence (Q9Y6Y9 19-160): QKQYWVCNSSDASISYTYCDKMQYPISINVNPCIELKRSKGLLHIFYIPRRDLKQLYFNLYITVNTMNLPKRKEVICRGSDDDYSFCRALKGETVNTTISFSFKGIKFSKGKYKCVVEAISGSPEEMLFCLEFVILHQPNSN

[8] = molecular target: T1, MD-2; test: Bis-ANS displacement assay; format: binding

## C=CCN1CC[C@]23c4c5ccc(O)c4O[C@H]2C(=O)CC[C@]3(O)[C@H]1C5 [(+)-Naloxone]
[1]
  effect on cocaine-induced increases of intra-VTA IL1β mRNA: blocked
[2]
  effect on basal NAc dopamine levels: did not influence basal dopamine levels
  effect on intra-VTA neurotensin-induced elevation of NAc dopamine: unaltered
[3]
  effect on cocaine-induced upregulation of IL-1β mRNA: blocked
[4]
  effect on brain cocaine concentrations: not altered
[5]
  conditioned place preference, compound alone: produced no appetitive or aversive CPP

## O=C1CC[C@]2(O)[C@@H]3Cc4ccc(O)c5c4[C@]2(CCN3CC2CC2)[C@@H]1O5 [(+)-naltrexone]
[6]
  effect on food-maintained responding: failed to suppress responding to food
[6]; fixed-ratio dose-response
  effect on responding for cocaine (self-administration): suppressed responding for cocaine at the peak cocaine doses

## COC(=O)[C@H]1[C@@H](OC(=O)c2ccccc2)C[C@@H]2CC[C@H]1N2C [Cocaine]
[2]
  extracellular NAc dopamine, compound alone: robust increases in extracellular NAc dopamine
  increase of NAc dopamine concentrations: 300%
[7]; aptamer-immobilized cocaine
  binding to human MD-2 (ELISA): bound to human MD-2 in a concentration-dependent manner
[5]
  conditioned place preference, compound alone: produces place preference
[8]
  Ki: 23.9 ± 5.9 µM

## CN(C)c1ccc(O)c2c1C[C@H]1C[C@H]3[C@H](N(C)C)C(O)=C(C(N)=O)C(=O)[C@@]3(O)C(O)=C1C2=O [minocycline]
[5]
  conditioned place preference, compound alone: neither water nor minocycline altered place preference

## IL1ra: IL-1 receptor antagonist
[2]
  effect on basal NAc dopamine levels: did not alter basal DA levels in the NAc
  effect on intra-VTA neurotensin-induced elevation of NAc dopamine: did not alter neurotensin-induced dopamine elevations in the NAc

## lipopolysaccharide [LPS]
[2]
  extracellular NAc dopamine, compound alone: increased
  increase of NAc dopamine concentrations: < 200%
[7]; varying concentrations of LPS added
  competition with cocaine for binding to MD-2 (ELISA): displaced cocaine binding to MD-2

## neurotensin
[2]
  extracellular NAc dopamine, compound alone: induced increased NAc dopamine
